Test results published in PMC9635080, “Design, synthesis, in vitro, and in silico biological evaluations of coumarin-indole hybrids as new anti-α-glucosidase agents” (BMC Chemistry, 2022).

Legend:
yeast α-glucosidase [1] = molecular target: T1, yeast α-glucosidase (Saccharomyces cerevisiae, UniProt P53341); test: In vitro α-glucosidase inhibition assay; type: biochemical; settings: for potency relative to acarbose: fold more potent than acarbose, from IC50 values; for inhibitory activity against α-glucosidase (in words): SAR discussion
T1 construct: purchased Sigma-Aldrich
T1 sequence (P53341 whole entry): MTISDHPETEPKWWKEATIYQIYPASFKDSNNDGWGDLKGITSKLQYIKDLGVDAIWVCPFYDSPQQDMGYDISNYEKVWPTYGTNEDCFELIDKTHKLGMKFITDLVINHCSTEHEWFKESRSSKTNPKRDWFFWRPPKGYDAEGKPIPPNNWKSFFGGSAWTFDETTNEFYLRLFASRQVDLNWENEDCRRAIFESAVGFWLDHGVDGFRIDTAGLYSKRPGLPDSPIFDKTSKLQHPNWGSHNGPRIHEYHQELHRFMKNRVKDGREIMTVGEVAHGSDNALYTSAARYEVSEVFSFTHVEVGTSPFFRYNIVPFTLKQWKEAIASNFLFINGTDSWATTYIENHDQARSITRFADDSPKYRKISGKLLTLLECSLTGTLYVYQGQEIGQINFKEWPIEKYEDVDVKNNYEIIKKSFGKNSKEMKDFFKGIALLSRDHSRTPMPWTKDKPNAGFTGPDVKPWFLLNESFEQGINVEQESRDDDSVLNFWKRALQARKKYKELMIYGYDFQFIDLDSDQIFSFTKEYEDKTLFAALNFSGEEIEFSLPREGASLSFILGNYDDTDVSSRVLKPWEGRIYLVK
Description: Appropriate enzyme concentration was obtained in potassium phosphate buffer (pH 6.8, 50 mM), and coumarin-indole hybrids 4a–m were dissolved in DMSO (10% final concentration). […] The percentage of enzyme inhibition (% Inhibition) for each sample was calculated by using the following formula: %Inhibition=[(Abs control-Abs sample)/Abs control]×100
IC50 values were calculated from non-linear regression curve using by the Logit method.

yeast α-glucosidase [2] = molecular target: T1, yeast α-glucosidase; test: Kinetic study (Lineweaver–Burk plot) on α-glucosidase; type: biochemical
Description: To determine the mechanism of α-glucosidase inhibition of the newly synthesized compounds, the kinetic study was performed on compound 4d as representative compound. The relative velocity of the α-glucosidase was determined on four increasing concentrations of the p-nitrophenyl glucopyranoside as substrate. […] Then, the Lineweaver-Burke plot was depicted using the reciprocal of velocity and substrate concentration (Fig. 2a).
Fig. 2 Kinetic study of compound 4d into α-glucosidase. a The Lineweaver–Burk plot in the absence and presence of different concentrations of compound 4d; b The secondary plot between Km and various concentrations of compound 4d
Appropriate enzyme concentration was obtained in potassium phosphate buffer (pH 6.8, 50 mM), and coumarin-indole hybrids 4a–m were dissolved in DMSO (10% final concentration). The potassium phosphate buffer (135 µL), various concentrations of the target compounds 4a–m (20 µL), and prepared enzyme solution (20 µL) were added to the 96-well plate and the later mixture was incubated for 10 min at 37 °C. […] Finally, the change in absorbance of the final mixture was measured at 405 nm by using spectrophotometer (Gen5, Power wave xs2, BioTek, America). […] The percentage of enzyme inhibition (% Inhibition) for each sample was calculated by using the following formula: %Inhibition=[(Abs control-Abs sample)/Abs control]×100

| SMILES | IC50 (yeast α-glucosidase [1]) | potency relative to acarbose (yeast α-glucosidase [1]) | melting point | Ki (yeast α-glucosidase [2]) | type of inhibition (yeast α-glucosidase [2]; Lineweaver–Burk plot, inhibitor 0, 28, 58 and 116 µM) | inhibitory activity against α-glucosidase (in words) (yeast α-glucosidase [1]) |
| --- | --- | --- | --- | --- | --- | --- |
| O=c1oc2ccccc2c(O)c1C(c1ccccc1)c1c[nH]c2ccccc12 (stereo not drawn) [Compound 4a, 3-((1H-indol-3-yl)(phenyl)methyl)-4-hydroxy-2H-chromen-2-one] | 118 ± 3.1 µM | around sixfold | 231 to 233 °C | – | – | – |
| Cc1ccc(C(c2c(O)c3ccccc3oc2=O)c2c[nH]c3ccccc23)cc1 (stereo not drawn) [Compound 4b, 3-((1H-indol-3-yl)(p-tolyl)methyl)-4-hydroxy-2H-chromen-2-one] | 167.5 ± 0.8 µM | – | 269 to 271 °C | – | – | – |
| COc1ccc(C(c2c(O)c3ccccc3oc2=O)c2c[nH]c3ccccc23)cc1 (stereo not drawn) [Compound 4c, 3-((1H-indol-3-yl)(4-methoxyphenyl)methyl)-4-hydroxy-2H-chromen-2-one] | 170 ± 2.1 µM | – | 246 to 248 °C | – | – | – |
| O=c1oc2ccccc2c(O)c1C(c1cccc(Oc2ccccc2)c1)c1c[nH]c2ccccc12 (stereo not drawn) [Compound 4d, 3-((1H-indol-3-yl)(3-phenoxyphenyl)methyl)-4-hydroxy-2H-chromen-2-one] | 116 ± 0.7 µM | around sixfold | 183 to 185 °C | 148 µM | competitive type of inhibition | – |
| O=c1oc2ccccc2c(O)c1C(c1cccc(O)c1)c1c[nH]c2ccccc12 (stereo not drawn) [Compound 4e, 4-Hydroxy-3-((3-hydroxyphenyl)(1H-indol-3-yl)methyl)-2H-chromen-2-one] | > 750 µM | – | 200 to 202 °C | – | – | loss of effect |
| O=c1oc2ccccc2c(O)c1C(c1ccc(O)cc1)c1c[nH]c2ccccc12 (stereo not drawn) [Compound 4f, 4-Hydroxy-3-((4-hydroxyphenyl)(1H-indol-3-yl)methyl)-2H-chromen-2-one] | > 750 µM | – | 286 to 288 °C | – | – | loss of effect |
| O=c1oc2ccccc2c(O)c1C(c1cccc(F)c1)c1c[nH]c2ccccc12 (stereo not drawn) [Compound 4g, 3-((3-Fluorophenyl)(1H-indol-3-yl)methyl)-4-hydroxy-2H-chromen-2-one] | 174 ± 2.3 µM | – | 222 to 224 °C | – | – | – |
| O=c1oc2ccccc2c(O)c1C(c1ccc(F)cc1)c1c[nH]c2ccccc12 (stereo not drawn) [Compound 4h, 3-((4-Fluorophenyl)(1H-indol-3-yl)methyl)-4-hydroxy-2H-chromen-2-one] | 474.9 ± 2.6 µM | – | 243 to 245 °C | – | – | dramatically decrease in inhibitory activity |
| O=c1oc2ccccc2c(O)c1C(c1cccc(Cl)c1)c1c[nH]c2ccccc12 (stereo not drawn) [Compound 4i, 3-((3-Chlorophenyl)(1H-indol-3-yl)methyl)-4-hydroxy-2H-chromen-2-one] | > 750 µM | – | 205 to 207 °C | – | – | loss of effect |
| O=c1oc2ccccc2c(O)c1C(c1ccc(Cl)cc1)c1c[nH]c2ccccc12 (stereo not drawn) [Compound 4j, 3-((4-Chlorophenyl)(1H-indol-3-yl)methyl)-4-hydroxy-2H-chromen-2-one] | 230 ± 2.3 µM | – | 235 to 237 °C | – | – | – |
| O=c1oc2ccccc2c(O)c1C(c1cccc(Br)c1)c1c[nH]c2ccccc12 (stereo not drawn) [Compound 4k, 3-((3-Bromophenyl)(1H-indol-3-yl)methyl)-4-hydroxy-2H-chromen-2-one] | > 750 µM | – | 212 to 214 °C | – | – | did not show activity |
| O=c1oc2ccccc2c(O)c1C(c1ccccc1[N+](=O)[O-])c1c[nH]c2ccccc12 (stereo not drawn) [Compound 4l, 3-((1H-indol-3-yl)(2-nitrophenyl)methyl)-4-hydroxy-2H-chromen-2-one] | > 750 µM | – | 240 to 242 °C | – | – | completely abolished anti-α-glucosidase activity |
| O=c1oc2ccccc2c(O)c1C(c1cccc([N+](=O)[O-])c1)c1c[nH]c2ccccc12 (stereo not drawn) [Compound 4m, 3-((1H-indol-3-yl)(3-nitrophenyl)methyl)-4-hydroxy-2H-chromen-2-one] | 180.5 ± 1.4 µM | – | 198 to 200 °C | – | – | – |
